Laboratory results published in patent publication KR20110129297A, “양친매성 갈롤 유도체를 유효성분으로 포함하는 항균제조성물” (전남대학교산학협력단, priority 2010, dated 2011).
Values after ≈ are worked out from the molar mass of the structure shown. “Also recorded” adds a separate entry of the source. Read-outs that look alike come from different tables or passages of the source.

Experiments:
[1] = system: Helicobacter pylori [헬리코박터 파일로리]; assay: Paper disc growth inhibition zone, Helicobacter pylori; type: cell-based; conditions: for zone of inhibition at 5 µmol/disc: Helicobacter pylori, read-out: diameter of growth inhibition zone
[2] = system: food spoilage bacteria and pathogens [식품부패균 및 병원성균]; assay: Paper disc growth inhibition zone, food spoilage bacteria and pathogens (9 strains); type: cell-based; conditions: 5 μmol per disc, solid medium, 12-16 h at 37, 30 or 25 °C depending on strain
[3] = system: cells causing lung cancer or stomach cancer [폐암이나 위암을 일으키는 세포]; conditions: background statement; cited from earlier work
[4] = no test in this patent; mouse allergy test of urushiol derivatives cited (b4); cited from earlier work
[5] = cited master's thesis / KR 2009066135 A; cited from earlier work
[6] = system: food spoilage bacteria and pathogens [식품부패균 및 병원성균]; assay: Minimum inhibitory concentration, food spoilage bacteria and pathogens (9 strains); type: cell-based; conditions: liquid dilution 1000-4 μg/mL
S. aureus = assay: Minimum inhibitory concentration, Staphylococcus aureus; type: cell-based; conditions: 37 °C, 12-16 h, inoculum 10^5-10^7 cfu/mL, read-out: minimum inhibition concentration (MIC)
[7] = paper disc, 5 μmol per disc, CO2 incubator 37 °C, 10% CO2, 95% humidity

Molecule `CCCCCCCCCCc1ccc(O)c(O)c1O` [DG, 4-decyl-1,2,3-benzenetriol] has a zone of inhibition at 5 µmol/disc [1, 7] of 7 mm.

For `CCCCCCCCCCCCCCCCCCCCc1ccc(O)c(O)c1O` [EG, 4-eicosyl-1,2,3-benzenetriol], the zone of inhibition at 5 µmol/disc [1, 7] was 0 mm and the “antimicrobial activity (growth inhibition zone), in words” value [2] was “전혀 항균활성을 보이지 않았다”.

For `Oc1cccc(O)c1O` [G, pyrogallol], the zone of inhibition at 5 µmol/disc [1, 7] is given as 0 mm, the “antimicrobial activity (growth inhibition zone), in words” value [2] is given as “매우 약한 항균활성을 보였으며” and the “inhibition of cancer cell growth, in words” value [3] is given as “폐암이나 위암을 일으키는 세포의 생장을 억제시키는 항암작용에도 효과가 있음”.

For `CCCCCc1cccc(O)c1O` [PC, 3-pentylcatechol], the zone of inhibition at 5 µmol/disc [1, 7] is listed as 31.5 ± 0.5 mm, the “allergenicity, in words” value [4] is listed as “알러지 비유발성” and the “antimicrobial activity, in words” value [5] is listed as “강한 항균활성을 보였던”.

For `CCCCCCCCCCCCCCCc1ccc(O)c(O)c1O` [PDG, 4-pentadecyl-1,2,3-benzenetriol], the zone of inhibition at 5 µmol/disc [1] was 0 mm and the “antimicrobial activity (growth inhibition zone), in words” value [2] was “전혀 항균활성을 보이지 않았다”.

In the case of `CCCCCc1ccc(O)c(O)c1O` [PG, 4-pentyl-1,2,3-benzenetriol], the zone of inhibition at 5 µmol/disc [1, 7] is listed as 26.7 ± 0.6 mm, the “antimicrobial activity (growth inhibition zone), in words” value ([1]; paper disc, 5 μmol per disc, compared with other gallol derivatives) is listed as “가장 강한 항균활성을 보였다” and the “allergenicity, in words” value [4] is listed as “알러지 비유발성”. The “antimicrobial activity (growth inhibition zone), in words” value [2] was “가장 강한 항균활성을 보였다; also recorded: PC와 비슷하거나 그보다 우수한 항균활성을 보였다” and the “antimicrobial activity by minimum inhibition concentration, in words” value [6] was “최소저해농도 결과에 있어서 뛰어난 항균활성을 나타내지 않았다; also recorded: 측쇄가 없는 G보다는 PG가 더 낮은 농도에서 활성을 보였다”.

`CCn1cc(C(=O)O)c(=O)c2ccc(C)nc21` [날리디식 에시드, nalidixic acid] showed a zone of inhibition at 5 µmol/disc [1, 7] of 11 ± 0.2 mm.

In the case of `O=C(O)c1ccccc1` [벤조익 에시드, benzoic acid], the MIC (S. aureus) is reported as 250 µM (≈ 30.5 µg/mL).

For `CC1(C)S[C@@H]2[C@H](NC(=O)[C@H](N)c3ccccc3)C(=O)N2[C@H]1C(=O)O` [앰피실린, ampicillin], the zone of inhibition at 5 µmol/disc [1, 7] was 7 mm.

Molecule `CC[C@H]1OC(=O)[C@H](C)[C@@H](O[C@H]2C[C@@](C)(OC)[C@@H](O)[C@H](C)O2)[C@H](C)[C@@H](O[C@@H]2O[C@H](C)C[C@H](N(C)C)[C@H]2O)[C@](C)(O)C[C@@H](C)C(=O)[C@H](C)[C@@H](O)[C@]1(C)O` [에리스로마이신, erythromycin] has a zone of inhibition at 5 µmol/disc [1, 7] of 7 mm.

With `CN(C)[C@@H]1C(O)=C(C(N)=O)C(=O)[C@@]2(O)C(O)=C3C(=O)c4c(O)cccc4[C@@](C)(O)[C@H]3C[C@@H]12` [테트라사이클린, tetracycline] the zone of inhibition at 5 µmol/disc [1, 7] was 9 mm.
